Measurements reported in patent US5049389A, “Novel liposome composition for the treatment of interstitial lung diseases” (priority 1989, dated 1991).

Experiments:
[1] = rat, in vivo
Protocol: The amount of drug in the lungs at time zero can be used to determine the amount of free drug in the formulation, since free drug is very rapidly absorbed from the lungs (Dose=free drug+amount in lungs at t=0). This amount also includes any liposome associated drug that was rapidly released ("burst" effect).
The absorption kinetics (sustained release) was determined by measuring percentage of ^14 C BDP remaining in the lungs following the intratracheal instillation of the above described five liposome formulations and one intravenous administration of free drug.
All studies were performed in male Sprague-Dawley rats weighing 250 to 450 g. After fasting for 16 hours, animals were anesthetized by i.m. injection of ketamine (25 mg/kg), xylazine (5 mg/kg) and acepromazine (0.5 mg/ml). During the procedure the animal's body temperature was maintained with a 37° C. heating pad. Additional anesthetic was administered as required, using half the original dose. A midline incision was made in the neck and the right jugular vein and left carotid artery were cannulated with short lengths of polyethylene tubing to which a 23 ga Luer stub adapter (Clay Adams #7565) and plastic 3-way stopcock (Argyle #173518) were attached. Blood samples (0.5-4 ml) were removed from the carotid arterial cannula after first flushing with fresh blood to clear the line. Blood volume removed was replaced with an equal volume of 5% dextrose solution containing 50 U/ml of heparin via the jugular cannula. For intravenous (i.v.) injection studies, drug was injected into the venous cannula with a 500 ul glass syringe via a 22 ga needle and injection cap and flushed with 0.5 to 1.0 ml dextrose solution.
For intratracheal (i.t.) instillation of BDP formulations, (Table V) the trachea was cannulated with a 4 cm long section of Teflon tubing (1.2 mm I.D.), inserted at the level of the fifth tracheal ring below the thyroid cartilage and tied in place with a suture. Excess fluid in the trachea was aspirated through tubing attached to a syringe. […]

[2] = Thin layer chromatographic assay of lung samples for BDP metabolism; assay type: in vivo, rat; settings: thin layer chromatography
[3] = Partition between octanol and phosphate buffer saline; assay type: physicochemical; settings: pH 7.4
Source text: Nearly all (95%) of the BDP was associated with the octanol.

[4] = tested on: chronic relapsing Stage II and III pulmonary sarcoidosis; settings: 1200 or 2400 ug daily inhaled via Nebuhaler; cited from earlier work

drug absorbed before the first time point [1] | apparent half-life in lungs (elimination of released radiolabel, not absorption) ([1]; 0.008 mg/kg) | ^14 C BDP removed from the lungs (absorbed) ([1]; 0.5 h) | BDP associated with the octanol [3] | SMILES | metabolism of BDP prior to leaving the lungs [2] | improvement in pulmonary sarcoidosis [4]
over 98% | 3.0 h | 99.7% | 95% | CCC(=O)OCC(=O)[C@@]1(OC(=O)CC)[C@@H](C)C[C@H]2[C@@H]3CCC4=CC(=O)C=C[C@]4(C)[C@@]3(Cl)[C@@H](O)C[C@@]21C [Beclomethasone dipropionate, beclomethasone dipropionate] | no detectable metabolism of BDP prior to leaving the lungs | –
– | – | – | – | CCCC1O[C@@H]2C[C@H]3[C@@H]4CCC5=CC(=O)C=C[C@]5(C)[C@H]4[C@@H](O)C[C@]3(C)[C@]2(C(=O)CO)O1 (stereo partly drawn) [budesonide] | – | showed improvement in chronic relapsing Stage II and III pulmonary sarcoidosis
